We go through four molecules from ChEMBL document CHEMBL1201862, “PubChem BioAssay data set” (2004).

Some test systems named below: HCT-15; SF-295; SK-OV-3; NCI-H23; NCI-H460; OVCAR-3; HCT-116; UACC-62; MOLT-4; NCI/ADR-RES; Hs-578T; EKVX; A498; RPMI-8226; T47D; HT-29; IGROV-1; OVCAR-5; ACHN; TK-10.
What all share (test): DTP human tumour cell line panel, 48 h

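The compound was tested at five concentrations on cells cultured in 96-well plates, with a 48-hour exposure period. GI50 = concentration required for 50% inhibition of growth.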 Calls of active or inactive are those of the source. Cut-off read from the data, not from the text of the source: active = GI50 up to about 1.1 µM and inactive = higher.

With `CCCCC1C(=O)N(c2ccc(S(=O)(=O)Nc3ccccn3)cc2)N(c2ccc(O)c(C(=O)O)c2)C1=O` (stereo not drawn), the GI50 (in general, the concentration at which growth is held to half of that of the control) in the assay on HCT-15 is more than 100 µM; in the assay with SF-295, > 100 µM (inactive); in the assay on SK-OV-3, > 100 µM (inactive); in the assay with NCI-H23 it was > 100 µM (inactive); in the assay on NCI-H460, > 100 µM (inactive); in the assay on OVCAR-3 it was > 100 µM (inactive). Further, the GI50 in the assay with HCT-116, in the assay with UACC-62, in the assay on MOLT-4, in the assay with NCI/ADR-RES, in the assay on Hs-578T and in the assay on EKVX was > 100 µM (inactive) each time. The GI50 in the assay on A498, with RPMI-8226, in the assay with T47D, in the assay on HT-29, with IGROV-1 and in the assay on OVCAR-5 was > 100 µM (inactive) in each case. Besides, in the assay with ACHN, the GI50 is > 100 µM (inactive).

Consider `O=c1c(C(c2cnc3ccccc3c2)c2c(O)oc3ccccc3c2=O)c(O)oc2ccccc12`, for which the GI50 with HCT-15 is 44.6 µM; in the assay with NCI-H23 it was 41.7 µM (inactive); in the assay with NCI-H460, 27.6 µM (inactive); in the assay on OVCAR-3 it was 91.8 µM (inactive); in the assay with HCT-116, 30.3 µM (inactive); with UACC-62 it was 17.6 µM (inactive). Also, the GI50 with MOLT-4 is 27.7 µM (inactive); in the assay with NCI/ADR-RES, > 100 µM (inactive); with Hs-578T it was 22.4 µM (inactive); with TK-10, 49.4 µM (inactive); with EKVX it was 99.3 µM (inactive); with A498, 92.5 µM (inactive). The GI50 is 29 µM (inactive) with RPMI-8226, > 100 µM (inactive) in the assay on T47D, 33.4 µM (inactive) with HT-29 and > 100 µM (inactive) in the assay on IGROV-1.

Consider `COc1cc(C2C3=C(COC3=O)OC(C)(C)Oc3cc4c(cc32)OCO4)cc(OC)c1O` (stereo not drawn), for which the GI50 in the assay with HCT-15 is 0.873 µM; in the assay on SF-295, 0.232 µM (active); in the assay with SK-OV-3, 0.757 µM (active); with NCI-H23 it was 1.86 µM (inactive); in the assay on NCI-H460 it was 0.643 µM (active); with OVCAR-3, 0.437 µM (active). Further, the GI50 in the assay with HCT-116 was 0.548 µM (active); in the assay with UACC-62, 3.27 µM (inactive); in the assay on MOLT-4, 3.11 µM (inactive); in the assay on NCI/ADR-RES, 0.39 µM (active); in the assay on Hs-578T, 1.56 µM (inactive); in the assay with EKVX, 4.12 µM (inactive). For the same molecule, the GI50 in the assay on A498 is 1.04 µM (active); with RPMI-8226 it was 1.62 µM (inactive); with T47D, 0.498 µM (active); with HT-29, 2.19 µM (inactive); in the assay with IGROV-1, 0.989 µM (active); in the assay on OVCAR-5, 3.58 µM (inactive). Further, the GI50 with ACHN is 0.851 µM (active).

As to `Cc1nc(C)c(Cc2ccccc2)o1`, the 50% growth inhibitory concentration (GI50) was more than 100 µM with HCT-15; > 100 µM (inactive) in the assay with SF-295; > 100 µM (inactive) in the assay on SK-OV-3; > 100 µM (inactive) in the assay on NCI-H23; > 100 µM (inactive) in the assay with NCI-H460; 98.2 µM (inactive) in the assay on OVCAR-3. The GI50 in the assay with HCT-116, in the assay with UACC-62, in the assay on MOLT-4, in the assay with NCI/ADR-RES, with Hs-578T and with TK-10 was > 100 µM (inactive) each time. Besides, the GI50 with EKVX, in the assay with A498, in the assay on T47D, in the assay on HT-29, in the assay with IGROV-1 and with OVCAR-5 was > 100 µM (inactive) each time. Besides, in the assay with ACHN, the GI50 was > 100 µM (inactive).
